# Data as given in US20260130395A1, “Water Dispersible Botanical Compositions” (Aquila Black Limited, priority 2021, published 2026).
# Assay: Stability of cannabinoid compounds and Vitamin E components in Beverage 1 (AB White) by LCMSMS
# Type: physicochemical
# Settings: for Stability of Plant-Derived Cannabinoid Compounds in AB White, 8° C.: AB White stored at 8° C.; for Stability of Plant-Derived Cannabinoid Compounds in AB White, 21-25° C.: AB White stored at 21-25° C.
compound,measurement,setting,value
"CCCCCc1cc(O)c2c(c1)OC(C)(C)c1ccc(C)cc1-2 [CBN, cannabinol]","Stability of Plant-Derived Cannabinoid Compounds in AB White, 8° C.",0 days,2.79 µg/mL
same,"Stability of Plant-Derived Cannabinoid Compounds in AB White, 8° C.",1 days,2.77 µg/mL
same,"Stability of Plant-Derived Cannabinoid Compounds in AB White, 8° C.",2 days,2.72 µg/mL
same,"Stability of Plant-Derived Cannabinoid Compounds in AB White, 8° C.",3 days,2.73 µg/mL
same,"Stability of Plant-Derived Cannabinoid Compounds in AB White, 8° C.",5 days,2.76 µg/mL
same,"Stability of Plant-Derived Cannabinoid Compounds in AB White, 8° C.",8 days,2.75 µg/mL
same,"Stability of Plant-Derived Cannabinoid Compounds in AB White, 8° C.",9 days,2.76 µg/mL
same,"Stability of Plant-Derived Cannabinoid Compounds in AB White, 8° C.",10 days,2.79 µg/mL
same,"Stability of Plant-Derived Cannabinoid Compounds in AB White, 8° C.",11 days,2.71 µg/mL
same,"Stability of Plant-Derived Cannabinoid Compounds in AB White, 8° C.",12 days,2.80 µg/mL
same,"Stability of Plant-Derived Cannabinoid Compounds in AB White, 8° C.",15 days,2.79 µg/mL
same,"Stability of Plant-Derived Cannabinoid Compounds in AB White, 8° C.",16 days,2.77 µg/mL
same,"Stability of Plant-Derived Cannabinoid Compounds in AB White, 8° C.",17 days,2.82 µg/mL
same,"Stability of Plant-Derived Cannabinoid Compounds in AB White, 8° C.",18 days,2.71 µg/mL
same,"Stability of Plant-Derived Cannabinoid Compounds in AB White, 8° C.",19 days,2.71 µg/mL
same,"Stability of Plant-Derived Cannabinoid Compounds in AB White, 8° C.",22 days,2.76 µg/mL
same,"Stability of Plant-Derived Cannabinoid Compounds in AB White, 8° C.",23 days,2.71 µg/mL
same,"Stability of Plant-Derived Cannabinoid Compounds in AB White, 8° C.",24 days,2.75 µg/mL
same,"Stability of Plant-Derived Cannabinoid Compounds in AB White, 8° C.",25 days,2.75 µg/mL
same,"Stability of Plant-Derived Cannabinoid Compounds in AB White, 8° C.",26 days,2.76 µg/mL
same,"Stability of Plant-Derived Cannabinoid Compounds in AB White, 8° C.",29 days,2.76 µg/mL
same,"Stability of Plant-Derived Cannabinoid Compounds in AB White, 8° C.",30 days,2.78 µg/mL
same,"Stability of Plant-Derived Cannabinoid Compounds in AB White, 8° C.",60 days,2.68 µg/mL
same,"Stability of Plant-Derived Cannabinoid Compounds in AB White, 8° C.",90 days,2.74 µg/mL
same,"Stability of Plant-Derived Cannabinoid Compounds in AB White, 8° C.",120 days,2.72 µg/mL
same,"Stability of Plant-Derived Cannabinoid Compounds in AB White, 8° C.",150 days,2.69 µg/mL
same,"Stability of Plant-Derived Cannabinoid Compounds in AB White, 8° C.",180 days,2.77 µg/mL
same,"Stability of Plant-Derived Cannabinoid Compounds in AB White, 8° C.",210 days,2.75 µg/mL
same,"Stability of Plant-Derived Cannabinoid Compounds in AB White, 8° C.",240 days,2.70 µg/mL
same,"Stability of Plant-Derived Cannabinoid Compounds in AB White, 8° C.",270 days,2.75 µg/mL
same,"Stability of Plant-Derived Cannabinoid Compounds in AB White, 8° C.",300 days,2.71 µg/mL
same,"Stability of Plant-Derived Cannabinoid Compounds in AB White, 8° C.",330 days,2.75 µg/mL
same,"Stability of Plant-Derived Cannabinoid Compounds in AB White, 8° C.",360 days,2.68 µg/mL
same,"Stability of Plant-Derived Cannabinoid Compounds in AB White, 8° C.",390 days,2.67 µg/mL
same,"Stability of Plant-Derived Cannabinoid Compounds in AB White, 8° C.",420 days,2.70 µg/mL
same,"Stability of Plant-Derived Cannabinoid Compounds in AB White, 8° C.",450 days,2.70 µg/mL
same,"Stability of Plant-Derived Cannabinoid Compounds in AB White, 8° C.",480 days,2.66 µg/mL
same,"Stability of Plant-Derived Cannabinoid Compounds in AB White, 8° C.",510 days,2.60 µg/mL
same,"Stability of Plant-Derived Cannabinoid Compounds in AB White, 8° C.",540 days,2.56 µg/mL
same,"Stability of Plant-Derived Cannabinoid Compounds in AB White, 8° C.",570 days,2.56 µg/mL
same,"Stability of Plant-Derived Cannabinoid Compounds in AB White, 21-25° C.",0 days,2.79 µg/mL
same,"Stability of Plant-Derived Cannabinoid Compounds in AB White, 21-25° C.",1 days,2.79 µg/mL
same,"Stability of Plant-Derived Cannabinoid Compounds in AB White, 21-25° C.",2 days,2.81 µg/mL
same,"Stability of Plant-Derived Cannabinoid Compounds in AB White, 21-25° C.",3 days,2.73 µg/mL
same,"Stability of Plant-Derived Cannabinoid Compounds in AB White, 21-25° C.",5 days,2.80 µg/mL
same,"Stability of Plant-Derived Cannabinoid Compounds in AB White, 21-25° C.",8 days,2.71 µg/mL
same,"Stability of Plant-Derived Cannabinoid Compounds in AB White, 21-25° C.",9 days,2.78 µg/mL
same,"Stability of Plant-Derived Cannabinoid Compounds in AB White, 21-25° C.",10 days,2.77 µg/mL
same,"Stability of Plant-Derived Cannabinoid Compounds in AB White, 21-25° C.",11 days,2.80 µg/mL
same,"Stability of Plant-Derived Cannabinoid Compounds in AB White, 21-25° C.",12 days,2.75 µg/mL
same,"Stability of Plant-Derived Cannabinoid Compounds in AB White, 21-25° C.",15 days,2.81 µg/mL
same,"Stability of Plant-Derived Cannabinoid Compounds in AB White, 21-25° C.",16 days,2.75 µg/mL
same,"Stability of Plant-Derived Cannabinoid Compounds in AB White, 21-25° C.",17 days,2.70 µg/mL
same,"Stability of Plant-Derived Cannabinoid Compounds in AB White, 21-25° C.",18 days,2.78 µg/mL
same,"Stability of Plant-Derived Cannabinoid Compounds in AB White, 21-25° C.",19 days,2.73 µg/mL
same,"Stability of Plant-Derived Cannabinoid Compounds in AB White, 21-25° C.",22 days,2.69 µg/mL
same,"Stability of Plant-Derived Cannabinoid Compounds in AB White, 21-25° C.",23 days,2.68 µg/mL
same,"Stability of Plant-Derived Cannabinoid Compounds in AB White, 21-25° C.",24 days,2.79 µg/mL
same,"Stability of Plant-Derived Cannabinoid Compounds in AB White, 21-25° C.",25 days,2.75 µg/mL
same,"Stability of Plant-Derived Cannabinoid Compounds in AB White, 21-25° C.",26 days,2.69 µg/mL
same,"Stability of Plant-Derived Cannabinoid Compounds in AB White, 21-25° C.",29 days,2.75 µg/mL
same,"Stability of Plant-Derived Cannabinoid Compounds in AB White, 21-25° C.",30 days,2.72 µg/mL
same,"Stability of Plant-Derived Cannabinoid Compounds in AB White, 21-25° C.",60 days,2.63 µg/mL
same,"Stability of Plant-Derived Cannabinoid Compounds in AB White, 21-25° C.",90 days,2.66 µg/mL
same,"Stability of Plant-Derived Cannabinoid Compounds in AB White, 21-25° C.",120 days,2.67 µg/mL
same,"Stability of Plant-Derived Cannabinoid Compounds in AB White, 21-25° C.",150 days,2.77 µg/mL
same,"Stability of Plant-Derived Cannabinoid Compounds in AB White, 21-25° C.",180 days,2.68 µg/mL
same,"Stability of Plant-Derived Cannabinoid Compounds in AB White, 21-25° C.",210 days,2.74 µg/mL
same,"Stability of Plant-Derived Cannabinoid Compounds in AB White, 21-25° C.",240 days,2.71 µg/mL
same,"Stability of Plant-Derived Cannabinoid Compounds in AB White, 21-25° C.",270 days,2.67 µg/mL
same,"Stability of Plant-Derived Cannabinoid Compounds in AB White, 21-25° C.",300 days,2.73 µg/mL
same,"Stability of Plant-Derived Cannabinoid Compounds in AB White, 21-25° C.",330 days,2.75 µg/mL
same,"Stability of Plant-Derived Cannabinoid Compounds in AB White, 21-25° C.",360 days,2.67 µg/mL
same,"Stability of Plant-Derived Cannabinoid Compounds in AB White, 21-25° C.",390 days,2.66 µg/mL
same,"Stability of Plant-Derived Cannabinoid Compounds in AB White, 21-25° C.",420 days,2.62 µg/mL
same,"Stability of Plant-Derived Cannabinoid Compounds in AB White, 21-25° C.",450 days,2.61 µg/mL
same,"Stability of Plant-Derived Cannabinoid Compounds in AB White, 21-25° C.",480 days,2.57 µg/mL
same,"Stability of Plant-Derived Cannabinoid Compounds in AB White, 21-25° C.",510 days,2.66 µg/mL
same,"Stability of Plant-Derived Cannabinoid Compounds in AB White, 21-25° C.",540 days,2.63 µg/mL
same,"Stability of Plant-Derived Cannabinoid Compounds in AB White, 21-25° C.",570 days,2.56 µg/mL
